# Read-outs that look alike come from different tables or passages of the source.
# How the values were obtained:
# platelet aggregation = test: Inhibiting effect of platelet aggregation (ADP-induced, human platelet-rich plasma); format: cell-based; conditions: human PRP, compound added one minute before ADP
# Protocol: Inhibiting effect of platelet aggregation
# The blood taken from a human median cubital vein was centrifuged at 800 rpm for 10 min. and a supernatant thereof was used as a platelet-rich plasma (PRP). An aliquot of PRP thus obtained was put into a small tube, to which […] (ADP) was added to induce platelet aggregation. The extent of aggregation was determined by detecting a change in turbidity of the aliquot by an apparatus for measuring platelet aggregation (Rika-Denki, Tokyo). The compound was added one minute before the addition of ADP. The concentration of the compound which may reduce the platelet aggregation, 50% of the control was designated as IC50.
# [1] = tested on: blood pressure of the carotid; test: Hypotensive effect (carotid blood pressure, anesthetized rat); format: in vivo; conditions: chloralose-anesthetized Wistar male rat, injected via catheter connected to femoral artery; read-out: Hypotensive effect ED25 (dose reducing blood pressure by 25 mmHg)
# Protocol: A catheter was inserted to a carotid of the Wistar male rat under chloralose anesthesia. Another end of the catheter was connected to a polygraph with a pressure-transducer to detect a blood pressure of the carotid. The compound was injected via catheter connected to a femoral artery. The dose of the compound which may reduce the blood pressure in an amount of 25 mmHg was designated as ED25.
# gastric acid secretion [2] = test: Inhibiting effect of gastric acid secretion, pylorus-ligated rat (Shay); format: in vivo; conditions: pylorus ligation, injected into duodenum, 5 hours
# Protocol: (§1) Inhibiting effect of gastric acid secretion
# Under anesthesia by ether, the abdomen of the rat was incised in its median and a pylorus was ligated with silk thread according to Shay (Gastroenterology 5, 43 (1945)). Simultaneously, the compound was injected into a duodenum of the rat and then the incision was closed.
# Five hours later, the median-incision of the abdomen was again performed and the esophargus was ligated and then the whole stomach was removed.
# The stomach was cut along a greater curvature and the contents thereof was transferred into a graduated centrifuge tube. After centrifugation at 3,000 rpm for 10 min., a volume of a gastric juice was measured and a part of its supernatant was titrated to pH 7 with 0.1N NaOH using a pH-stat (Radio meter).
# The mean dose of the compounds which may reduce the volume of gastric juice (ml) and acidity (mEq/ml) of a group of five animals to 50% of that of the controls were designated respectively as ED50.
# gastric acid secretion [3] = test: Inhibiting effect of gastric acid secretion, perfused stomach, pentagastrin-stimulated (Ghosh & Schild); format: in vivo, male SD rat; conditions: urethane-anesthetized SD rat, pentagastrin 0.05 μg/kg/min, injected through femoral vein; ratio of area index to that of PGE2
# Protocol: as §1
# A male SD rat was incised in the abdomen under anesthesia by urethane and the lumen of a stomach was perfused with a physiolosical saline solution through a double-cannula inserted into a lumen of the stomach. A pH of a draining gastric acid was monitored using a pH-meter (M. Ghosh, H. Schild, Br. J. Pharmacol. 13, 54 (1958)). The secretion of gastric acid was stimulated by a continuous infusion of the pentagastrin at a rate of 0.05 μg/kg/min. When the pH of gastric acid became stable value of about 4, the compound was injected through a femoral vein. As an index of the inhibiting effect of gastric acid secretion by the compound was calculated from the area surrounded by the curve drawn by the time course of the pH of gastric acid, from the point increase by the injection of the compound and to the point it came back to baseline. The index thus obtained was compared to that of PGE2 and a ratio therebetween was shown in Table 3, as a relative effect of the compound.
# corpus of stomach = test: Gastric cytoprotection effect (lesion length / ulcer index after oral 0.2N NaOH); format: in vivo; conditions: 1 h, 30 min before oral 0.2N NaOH, lesion measured one hour later, read-out: Gastric cytoprotection effect ED50 (dose reducing the sore to 50% of control)
# Text: Gastric cytoprotection effect
# Gastric cytoprotection effect was studied according to the method by A. Robert (Gastroenterology, 77(3), 443, (1979)). Thirty min. after oral administration of the compound according to the invention, 0.2N NaOH was orally applied to the animals.
# One hour later, the animals were killed under anesthesia by chloroform. The stomach was removed and fixed in a solution of 5% formalin. After fixation, the stomach was cut along the greater curvature. A total length of the lesion appearing on the corpus of stomach was then measured and served as an ulcer index.
# The dose of the compound which may reduce the sore to 50% of that of the control was designated as ED50.
# The gastric cytoprotection effects of the compounds according to the invention, which is thus represented by ED50, are summarized in Table 1.
# [4] = acidity (mEq/ml) to 50% of controls, read-out: Inhibiting effect of gastric acid secretion ED50, Acidity
# [5] = volume (ml) to 50% of controls, read-out: Inhibiting effect of gastric acid secretion ED50, Volume of the gastric juice
SMILES,IC50 (platelet aggregation),ED (25 mmHg) [1],ED50 (gastric acid secretion [2]; [4]),ED50 (gastric acid secretion [2]; [5]),"Inhibiting effect of gastric acid secretion, Relative effect (PGE2 = 1) (gastric acid secretion [3])",ED50 (corpus of stomach)
"CCCCCC[C@H](O)/C=C/[C@@H]1[C@H]2c3cccc(OCC(=O)O)c3O[C@H]2C[C@H]1O (relative stereo) [Compound 160, 20a-Homo-2,5,6,7-tetranor-4-oxa-4,8-inter-m-phenylene PGI2]",0.41 ng/mL,0.23 µg/kg,450 µg/kg,97 µg/kg,13,
"CC(C)[C@H](O)/C=C/[C@@H]1[C@H]2c3cccc(OCC(=O)O)c3O[C@H]2C[C@H]1O (relative stereo) [Compound 164, 16-Methyl-2,5,6,7,18,19,20-heptanor-4-oxa-4,8-inter-m-phenylene PGI2]",1.35 ng/mL,,890 µg/kg,1340 µg/kg,12,9.6 µg/kg
"CC(C)(C)[C@H](O)/C=C/[C@@H]1[C@H]2c3cccc(OCC(=O)O)c3O[C@H]2C[C@H]1O (relative stereo) [Compound 168, 16,16-Dimethyl-2,5,6,7,18,19,20-heptanor-4-oxa-4,8-inter-m-phenylene PGI2]",1.54 ng/mL,0.49 µg/kg,,,3.5,30.5 µg/kg
"CCCC(C)(C)[C@H](O)/C=C/[C@@H]1[C@H]2c3cccc(OCC(=O)O)c3O[C@H]2C[C@H]1O (relative stereo) [Compound 176, 16,16-Dimethyl-2,5,6,7,20-pentanor-4-oxa-4,8-inter-m-phenylene PGI2]",,0.69 µg/kg,,,48,4.1 µg/kg
"CCCCC(C)(C)[C@H](O)/C=C/[C@@H]1[C@H]2c3cccc(OCC(=O)O)c3O[C@H]2C[C@H]1O (relative stereo) [Compound 180, 16,16-Dimethyl-2,5,6,7-tetranor-4-oxa-4,8-inter-m-phenylene PGI2]",,0.69 µg/kg,1780 µg/kg,510 µg/kg,72,2.9 µg/kg
"CC(C)C(C)(C)[C@H](O)/C=C/[C@@H]1[C@H]2c3cccc(OCC(=O)O)c3O[C@H]2C[C@H]1O (relative stereo) [Compound 196, 16,16,17-Trimethyl-2,5,6,7,19,20-hexanor-4-oxa-4,8 inter-m-phenylene PGI2]",,,,,,150 µg/kg
"CC(C)(C1CCCCC1)[C@H](O)/C=C/[C@@H]1[C@H]2c3cccc(OCC(=O)O)c3O[C@H]2C[C@H]1O (relative stereo) [Compound 248, 16-cyclohexyl-16-methyl-2,5,6,7,18,19,20-heptanor-4-oxa-4,8-inter-m-phenylene PGI2]",,11 µg/kg,,,13,31.1 µg/kg
"CC(C)(CC1CCCCC1)[C@H](O)/C=C/[C@@H]1[C@H]2c3cccc(OCC(=O)O)c3O[C@H]2C[C@H]1O (relative stereo) [Compound 252, 17-cyclohexyl-16,16-dimethyl-2,5,6,7,18,19,20-heptanor-4-oxa-4,8-inter-m-phenylene PGI2]",,5.6 µg/kg,,,13,6.5 µg/kg
"CC(C)(c1ccccc1)[C@H](O)/C=C/[C@@H]1[C@H]2c3cccc(OCC(=O)O)c3O[C@H]2C[C@H]1O (relative stereo) [Compound 293, 16-methyl-16-phenyl-2,5,6,7,18,19,20-heptanor-4-oxa-4,8-inter-m-phenylene PGI2]",,46 µg/kg,,,4.8,
"CC(C)(Cc1ccccc1)[C@H](O)/C=C/[C@@H]1[C@H]2c3cccc(OCC(=O)O)c3O[C@H]2C[C@H]1O (relative stereo) [Compound 297, 16,16-dimethyl-17-phenyl-2,5,6,7,18,19,20-heptanor-4-oxa-4,8-inter-m-phenylene PGI2]",13 ng/mL,0.34 µg/kg,,,75,
"COCC(C)(C)[C@H](O)/C=C/[C@@H]1[C@H]2c3cccc(OCC(=O)O)c3O[C@H]2C[C@H]1O (relative stereo) [Compound 301, 16,16-Dimethyl-2,5,6,7,20-pentanor-4,18-dioxa-4,8-inter-m-phenylene PGI2]",,0.36 µg/kg,,,16,38.5 µg/kg
"O=C(O)COc1cccc2c1O[C@H]1C[C@@H](O)[C@H](/C=C/[C@@H](O)COc3ccccc3)[C@@H]21 (relative stereo) [Compound 313, 16-Phenoxy-2,5,6,7,17,18,19,20-octanor-4-oxa-4,8-inter-m-phenylene PGI2]",,2.1 µg/kg,310 µg/kg,420 µg/kg,53,21.1 µg/kg
"CC(C)(Oc1ccccc1)[C@H](O)/C=C/[C@@H]1[C@H]2c3cccc(OCC(=O)O)c3O[C@H]2C[C@H]1O (relative stereo) [Compound 317, 16-Methyl-16-phenoxy-2,5,6,7,18,19,20-heptanor-4-oxa-4,8-inter-m-phenylene PGI2]",,1.3 µg/kg,,,62,0.49 µg/kg
"CC(C)(Oc1ccccc1)[C@H](O)/C=C/[C@@H]1[C@H]2c3cccc(C#CC(=O)O)c3O[C@H]2C[C@H]1O (relative stereo) [Compound 371, 16-Methyl-16-phenoxy-2,5,6,7,18,19,20-heptanor-3,3,4,4-tetradehydro-4,8-inter-m-phenylene PGI2]",,2.4 µg/kg,4600 µg/kg,> 10000 µg/kg,8,27.9 µg/kg
"CCC[C@H](C)C[C@H](O)/C=C/[C@@H]1[C@H]2c3cccc(OCC(=O)O)c3O[C@H]2C[C@H]1O [Compound 213, 17-(S)-Methyl-2,5,6,7-tetranor-4-oxa-4,8-inter-m-phenylene PGI2]",0.075 ng/mL,0.023 µg/kg,230 µg/kg,87 µg/kg,41,
"CCCC[C@H](C)C[C@H](O)/C=C/[C@@H]1[C@H]2c3cccc(OCC(=O)O)c3O[C@H]2C[C@H]1O [Compound 218, (17S)-17-Methyl-20a-homo-2,5,6,7-tetranor-4-oxa-4,8-inter-m-phenylene PGI2]",0.18 ng/mL,0.045 µg/kg,,,,0.27 µg/kg
"CCCCC[C@H](O)/C=C/[C@H]1[C@H](O)CC(=O)[C@@H]1C/C=C\CCCC(=O)O [PGE2, reference compound]",,,,,1,

# Reference: patent US4775692A, “2,5,6,7-tetranor-4,8-inter-m-phenylene PGI2 derivatives” (Toray Industries, Inc., priority 1986, dated 1988)
